Values of other authors, collected in patent US20190289805A1, “CULTURING METHOD FOR CULTURED LEGUMINOUS ROOTS HAVING INCREASED COUMESTROL CONTENT” (Amorepacific Corporation, priority 2016, published 2019).

Test system: mouse uterus
Settings: oral administration

Q: With `O=c1oc2cc(O)ccc2c2oc3cc(O)ccc3c12` [coumestrol] as the compound, how does the estrogen effect (mature mice) read?
A: The estrogen effect was “has no estrogen effect”.

Q: What about the “estrogen effect (change in weight of uterus)” value (young female mice) of the same compound?
A: Its value is “exhibits an effective estrogen effect”.
